Laboratory results from ChEMBL document CHEMBL1201862, “PubChem BioAssay data set” (2004).
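Each compound was tested at five concentrations against cells in 96-well plates for 48 hours. GI50: concentration for 50% inhibition of growth.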 Active and inactive are the calls of the source. Rule as the data show it: active = GI50 up to about 1.1 µM and inactive = higher.

Experiments:
Assay in all cases: NCI anticancer screen, dose series, 48 h
M19-MEL = tested on: M19-MEL
RXF 631 = tested on: RXF 631
XF498 = tested on: XF498
LXFL 529 = tested on: LXFL 529
SNB-78 = tested on: SNB-78
DMS-114 = tested on: DMS-114
HOP-18 = tested on: HOP-18
DMS-273 = tested on: DMS-273

Structure (SMILES) | GI50 (M19-MEL) | GI50 (RXF 631) | GI50 (XF498) | GI50 (LXFL 529) | GI50 (SNB-78) | GI50 (DMS-114) | GI50 (HOP-18) | GI50 (DMS-273)
CC1Nc2ccccc2NC1C=C(C#N)C#N (centres undefined) | 15 µM (inactive) | 11.9 µM (inactive) | 17.1 µM (inactive) | 13 µM (inactive) | 15.3 µM (inactive) | 19.8 µM (inactive) | 20 µM (inactive) | 12.2 µM (inactive)
C[C@]12CCCC(=O)C1(O)C[C@H](C(=O)O)CC2 (some centres undefined) | > 100 µM (inactive) | > 100 µM (inactive) | > 100 µM (inactive) | > 100 µM (inactive) | – | > 100 µM (inactive) | > 100 µM (inactive) | > 100 µM (inactive)
Cc1cccc(C)c1NC(=O)C(C#N)C1=C(Cl)C(=O)c2ccccc2C1=O (centres undefined) | 4.55 µM (inactive) | 15.4 µM (inactive) | 15.5 µM (inactive) | 16.1 µM (inactive) | 23.4 µM (inactive) | 15.3 µM (inactive) | 12.7 µM (inactive) | 30.5 µM (inactive)
COc1cc(C2c3cc4c(cc3[C@@H](Nc3ccc([N+](=O)[O-])cc3)C3COC(=O)[C@H]23)OCO4)cc(OC)c1O (some centres undefined) | 3.06 µM (inactive) | 1.6 µM (inactive) | 2.07 µM (inactive) | 6.4 µM (inactive) | 5.68 µM (inactive) | 1.52 µM (inactive) | 11.2 µM (inactive) | 0.555 µM (active)
Cn1c(=O)c(C2c3ccccc3Oc3c2c(=O)n(C)c2ccccc32)c(O)c2ccccc21 (centres undefined) | > 100 µM (inactive) | 58.2 µM (inactive) | 26.9 µM (inactive) | 47.9 µM (inactive) | 53.3 µM (inactive) | 49.1 µM (inactive) | > 100 µM (inactive) | 68.7 µM (inactive)
